Data reported in patent US20230250106A1, “COMPOUNDS AND COMPOSITIONS FOR TREATING CONDITIONS ASSOCIATED WITH STING ACTIVITY” (IFM Due, Inc., priority 2020, published 2023).
pEC50: −log10 of the molar value.

tested on: STING pathway; assay: STING reporter assay: luciferase reporter activity in THP1-Dual KO-IFNAR2 cells activated with 2'3'cGAMP; type: cell-based; design: hSTING EC50: scale not given here; conditions: 2'3'cGAMP 15 μM, 24 h
Summary of the method: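 Luciferase secreted into the supernatant (QUANTI-Luc Plus read-out) was measured after 24 h at 37 °C. This was in THP1-Dual KO-IFNAR2 cells given test compounds (0.0017-100 μM final) plus Lipofectamine-transfected 2′3′cGAMP at 15 μM final; EC50 was then derived.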

| Structure (SMILES) | hSTING EC50 |
| --- | --- |
| COc1ncc(C(=O)Nc2c[nH]c3cc(F)c(F)cc23)cc1C(F)(F)F [Compound 264, N-(5,6-difluoro-1H-indol-3-yl)-6-methoxy-5-(trifluoromethyl)pyridine-3-carboxamide] | + + |

same assay, conditions: Homo sapiens, 2'3'cGAMP 15 μM, 24 h, read-out: hSTING EC50

| Structure (SMILES) | pEC50 |
| --- | --- |
| CC(C)c1nc(-c2ccc(C(=O)Nc3c[nH]c4cc(F)c(F)cc34)cc2)no1 [Compound 267, N-(5,6-difluoro-1H-indol-3-yl)-4-(5-isopropyl-1,2,4-oxadiazol-3-yl)benzamide] | 6.00 to 6.70 |
| O=C(Nc1c[nH]c2cc(F)c(F)cc12)c1cccc(OCCCC(F)(F)F)c1 [Compound 171, N-(5,6-difluoro-1H-indol-3-yl)-3-(4,4,4-trifluorobutoxy)benzamide] | 6.00 to 6.70 |
| CC1(c2ncc(C(=O)Nc3c[nH]c4cc(F)c(F)cc34)cc2F)CCC(F)(F)CC1 [Compound 220, 6-(4,4-difluoro-1-methylcyclohexyl)-N-(5,6-difluoro-1H-indol-3-yl)-5-fluoronicotinamide] | 6.70 to 7.40 |
| O=C(Nc1c[nH]c2cc(F)c(F)cc12)c1cnc(CN2CC(F)(F)C2)c(Cl)c1 [Compound 255, 5-chloro-N-(5,6-difluoro-1H-indol-3-yl)-6-((3,3-difluoroazetidin-1-yl)methyl)nicotinamide] | 5.30 to 6.00 |
| C[C@@H](c1ccc(C(=O)Nc2c[nH]c3cc(F)c(F)cc23)cc1F)N1CC(F)(F)C1 (single isomer, unassigned) [Compound 244, (R or S)—N-(5,6-difluoro-1H-indol-3-yl)-4-(1-(3,3-difluoroazetidin-1-yl)-1l3-ethyl)-3-fluorobenzamide] | 6.00 to 6.70 |
| O=C(Nc1c[nH]c2ccc(F)cc12)c1ccc(OCCCC(F)(F)F)c(F)c1 [Compound 146, 3-fluoro-N-(5-fluoro-1H-indol-3-yl)-4-(4,4,4-trifluorobutoxy)benzamide] | 6.70 to 7.40 |
| O=C(Nc1c[nH]c2cc(F)c(F)cc12)c1cnc(N2CCC(C(F)(F)F)C2)c(Cl)c1 (stereo not shown) [Compound 189, 5-chloro-N-(5,6-difluoro-1H-indol-3-yl)-6-(3-(trifluoromethyl)pyrrolidin-1-yl)nicotinamide] | 6.00 to 6.70 |
| O=C(Nc1c[nH]c2cc(F)c(F)cc12)c1ccc(OCC(F)(F)F)cc1 [Compound 152, N-(5,6-difluoro-1H-indol-3-yl)-4-(2,2,2-trifluoroethoxy)benzamide] | 6.00 to 6.70 |
| CC(C)Oc1ccc(C(=O)Nc2c[nH]c3cc(F)c(F)cc23)cc1 [Compound 128, N-(5,6-difluoro-1H-indol-3-yl)-4-isopropoxybenzamide] | 6.00 to 6.70 |
| O=C(Nc1c[nH]c2cc(F)c(F)cc12)c1cnc(N2CCC(F)(F)CC2)c(Cl)c1 [Compound 156, 5-chloro-N-(5,6-difluoro-1H-indol-3-yl)-6-(4,4-difluoropiperidin-1-yl)nicotinamide] | 6.00 to 6.70 |
| CC(C)n1cc(-c2ccc3[nH]cc(NC(=O)c4ccc(OCCCC(F)(F)F)cc4)c3c2)cn1 [Compound 180, N-(5-(1-isopropyl-1H-pyrazol-4-yl)-1H-indol-3-yl)-4-(4,4,4-trifluorobutoxy)benzamide] | 6.00 to 6.70 |
| O=C(Nc1c[nH]c2cc(F)c(F)cc12)c1ccc(OCCOC(F)(F)F)c(F)c1 [Compound 262, N-(5,6-difluoro-1H-indol-3-yl)-3-fluoro-4-(2-(trifluoromethoxy)ethoxy)benzamide] | 6.00 to 6.70 |
| O=C(Nc1c[nH]c2cc(F)c(F)cc12)c1cnc(N2C[C@@H]3[C@@H](COCC(F)(F)F)[C@@H]3C2)c(F)c1 [Compound 223, N-(5,6-difluoro-1H-indol-3-yl)-5-fluoro-6-((1R,5S,6r)-6-((2,2,2-trifluoroethoxy)methyl)-3-azabicyclo[3.1.0]hexan-3-yl)nicotinamide] | 6.70 to 7.40 |
| CCC(O)Cc1ccc(C(=O)Nc2c[nH]c3cc(F)c(F)cc23)cn1 (stereo not shown) [Compound 228, N-(5,6-difluoro-1H-indol-3-yl)-6-(2-hydroxybutyl)nicotinamide] | 5.30 to 6.00 |
| O=C(Nc1c[nH]c2cc(F)ccc12)c1cnc(N2CCC(F)(F)CC2)c(Cl)c1 [Compound 190, 5-chloro-6-(4,4-difluoropiperidin-1-yl)-N-(6-fluoro-1H-indol-3-yl)nicotinamide] | 6.00 to 6.70 |
| O=C(Nc1c[nH]c2cc(F)c(F)cc12)c1ccc(Cl)c(OCCCC(F)(F)F)c1 [Compound 170, 4-chloro-N-(5,6-difluoro-1H-indol-3-yl)-3-(4,4,4-trifluorobutoxy)benzamide] | 6.00 to 6.70 |
| O=C(Nc1c[nH]c2ccc(Cl)cc12)c1ccc(OC2CCN(CC(F)(F)F)CC2)cc1 [Compound 230, N-(5-chloro-1H-indol-3-yl)-4-((1-(2,2,2-trifluoroethyl)piperidin-4-yl)oxy)benzamide] | 6.70 to 7.40 |
| Cc1cc(C(=O)Nc2c[nH]c3cc(F)c(F)cc23)cnc1N1CC2(CCOC2)C1 [Compound 207, N-(5,6-difluoro-1H-indol-3-yl)-5-methyl-6-(6-oxa-2-azaspiro[3.4]octan-2-yl)nicotinamide] | 5.30 to 6.00 |
| CC(C)Oc1cc(C(=O)Nc2c[nH]c3cc(F)c(F)cc23)ccn1 [Compound 113, N-(5,6-difluoro-1H-indol-3-yl)-2-(propan-2-yloxy)pyridine-4-carboxamide] | 6.00 to 6.70 |
| O=C(Nc1c[nH]c2cc(F)c(F)cc12)c1cnc(OCCCC(F)(F)F)cn1 [Compound 148, N-(5,6-difluoro-1H-indol-3-yl)-5-(4,4,4-trifluorobutoxy)pyrazine-2-carboxamide] | 6.00 to 6.70 |

| Structure (SMILES) | pEC50 |
| --- | --- |
| O=C(Nc1c[nH]c2cc(F)c(F)cc12)c1ccc(C2(O)CCC(F)(F)CC2)cc1 [Compound 187, 4-(4,4-difluoro-1-hydroxycyclohexyl)-N-(5,6-difluoro-1H-indol-3-yl)benzamide] | 6.00 to 6.70 |
| O=C(Nc1c[nH]c2cc(F)c(F)cc12)c1cccc(OC2CCCCC2)c1 [Compound 179, 3-(cyclohexyloxy)-N-(5,6-difluoro-1H-indol-3-yl)benzamide] | 6.00 to 6.70 |
| O=C(Nc1c[nH]c2ccc(Cl)cc12)c1ccc(CC2CCN(CC(F)(F)F)CC2)cc1 [Compound 229, N-(5-chloro-1H-indol-3-yl)-4-((1-(2,2,2-trifluoroethyl)piperidin-4-yl)methyl)benzamide] | 6.70 to 7.40 |
| O=C(Nc1c[nH]c2cc(F)c(F)cc12)c1cnc(N2CCC3(CC2)CC3(F)F)c(F)c1 [Compound 219, N-(5,6-difluoro-1H-indol-3-yl)-6-(1,1-difluoro-6-azaspiro[2.5]octan-6-yl)-5-fluoronicotinamide] | 6.70 to 7.40 |
| CC(O)c1cc(C(=O)Nc2c[nH]c3cc(F)c(F)cc23)cc(C(F)(F)F)c1 (stereo not shown) [Compound 275, N-(5,6-difluoro-1H-indol-3-yl)-3-(1-hydroxyethyl)-5-(trifluoromethyl)benzamide] | 5.30 to 6.00 |
| O=C(Nc1c[nH]c2cc(F)c(F)cc12)c1cccc(-c2noc(C3CC3)n2)c1 [Compound 234, 3-(5-cyclopropyl-1,2,4-oxadiazol-3-yl)-N-(5,6-difluoro-1H-indol-3-yl)benzamide] | 6.00 to 6.70 |
| N#Cc1ccc2[nH]cc(NC(=O)c3ccc(OCCCC(F)(F)F)c(F)c3)c2c1 [Compound 145, N-(5-cyano-1H-indol-3-yl)-3-fluoro-4-(4,4,4-trifluorobutoxy)benzamide] | 6.00 to 6.70 |
| O=C(Nc1c[nH]c2cc(F)c(F)cc12)c1ccc(C(F)(F)F)c(CCO)c1 [Compound 280, N-(5,6-difluoro-1H-indol-3-yl)-3-(2-hydroxyethyl)-4-(trifluoromethyl)benzamide] | 6.00 to 6.70 |
| Cc1cc(C(=O)Nc2c[nH]c3cc(F)c(F)cc23)ccc1OC1CC(F)(F)C1 [Compound 165, N-(5,6-difluoro-1H-indol-3-yl)-4-(3,3-difluorocyclobutoxy)-3-methylbenzamide] | 6.70 to 7.40 |
| COc1cc(C(=O)Nc2c[nH]c3cc(F)c(F)cc23)ccc1C(F)(F)F [Compound 112, N-(5,6-difluoro-1H-indol-3-yl)-3-methoxy-4-(trifluoromethyl)benzamide] | 6.00 to 6.70 |
| O=C(Nc1c[nH]c2cc(F)c(F)cc12)c1ccc(C2CCC(F)(F)CC2)c(Cl)c1 [Compound 166, 3-chloro-N-(5,6-difluoro-1H-indol-3-yl)-4-(4,4-difluorocyclohexyl)benzamide] | 6.00 to 6.70 |
| COCc1cccc(-n2cc(-c3ccc4[nH]cc(NC(=O)c5ccc(OCCCC(F)(F)F)cc5)c4c3)cn2)c1 [Compound 200, N-(5-(1-(3-(methoxymethyl)phenyl)-1H-pyrazol-4-yl)-1H-indol-3-yl)-4-(4,4,4-trifluorobutoxy)benzamide] | 6.00 to 6.70 |
| O=C(Nc1c[nH]c2cc(F)c(F)cc12)c1ccc(C2CC(F)(F)C2)nc1 [Compound 216, N-(5,6-difluoro-1H-indol-3-yl)-6-(3,3-difluorocyclobutyl)nicotinamide] | 6.00 to 6.70 |
| O=C(Nc1c[nH]c2cc(F)c(F)cc12)c1ccc(OCCN2CCCCC2)cc1 [Compound 129, N-(5,6-difluoro-1H-indol-3-yl)-4-[2-(piperidin-1-yl)ethoxy]benzamide] | 5.30 to 6.00 |
| Cc1nc(C(=O)Nc2c[nH]c3cc(F)c(F)cc23)cnc1OC1CC(F)(F)C1 [Compound 208, N-(5,6-difluoro-1H-indol-3-yl)-5-(3,3-difluorocyclobutoxy)-6-methylpyrazine-2-carboxamide] | 6.00 to 6.70 |
| Cc1ncc(C(=O)Nc2c[nH]c3cc(F)c(F)cc23)cc1NCCCC(F)(F)F [Compound 243, N-(5,6-difluoro-1H-indol-3-yl)-6-methyl-5-((4,4,4-trifluorobutyl)amino)nicotinamide] | 6.00 to 6.70 |
| O=C(Nc1c[nH]c2cc(F)c(F)cc12)c1cccc(OCc2ccccc2)c1 [Compound 131, 3-(benzyloxy)-N-(5,6-difluoro-1H-indol-3-yl)benzamide] | 5.30 to 6.00 |
| O=C(Nc1c[nH]c2cc(F)c(F)cc12)c1cc(F)c(OCC(F)(F)F)c(F)c1 [Compound 115, N-(5,6-difluoro-1H-indol-3-yl)-3,5-difluoro-4-(2,2,2-trifluoroethoxy)benzamide] | 6.00 to 6.70 |
| Cc1cc(C(=O)Nc2c[nH]c3cc(F)c(F)cc23)cc(N2CCC(F)(F)CC2)n1 [Compound 175, N-(5,6-difluoro-1H-indol-3-yl)-2-(4,4-difluoropiperidin-1-yl)-6-methylisonicotinamide] | 4.00 to 5.30 |
